Source: patent US20230085307A1, “PYRIDAZINONE COMPOUND AND HERBICIDE” (NISSAN CHEMICAL CORPORATION, priority 2019, published 2023)

Assays:
oval-leafed pondweed [1] = assay: Test Example 1: herbicidal activity, application before weed generation under submerged conditions (Table 16, symbol C); format: in vivo, oval-leafed pondweed (Monochoria vaginalis); conditions: amount of applied herbicide 320 g/ha
Outline: (§1)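 Emulsion formulation, water-diluted to set dose, was put onto the flooded surface (4 cm depth, alluvial soil) the same day weeds were sown and 2.5-leaf rice transplanted. After 3 weeks at 25-30 °C under glass, each species was rated 0 (≤5% kill) to 5 (≥90% kill).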

green foxtail [2] = assay: Test Example 4: herbicidal effect by soil treatment (Table 19, symbol G); format: in vivo, green foxtail (Setaria viridis); conditions: amount of applied herbicide 320 g/ha
Outline: (§2)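 Pre-emergence style soil spray: seeds under ~1.5 cm sterilized diluvial soil received a uniform coat of emulsion diluted to the predetermined herbicide amount. Greenhouse 25–30° C; readout at week three on previously defined criteria.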

oval-leafed pondweed [3] = assay: Test Example 2: herbicidal activity, application during weed generation under submerged conditions (Table 17, symbol C); format: in vivo, oval-leafed pondweed (Monochoria vaginalis); conditions: AAH 320 g/ha; application during weed generation, submerged conditions
Outline: (§3)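 Steps: fill Wagner pots with alluvial soil; add water to give 4 cm depth; sow the species mixed; grow under glass at 25–30° C.; at 1–2 leaves apply water-diluted emulsion formulation to the water surface at a fixed herbicide amount; score after 3 weeks.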

green foxtail [4] = assay: Test Example 5: herbicidal effect by foliage application, plastic box (Table 20, symbol G); format: in vivo, green foxtail (Setaria viridis); conditions: foliage application, 320 g/ha, three weeks after application
Outline: (§4)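 Plants were sown into sterilized diluvial soil under about 1.5 cm cover and kept in a greenhouse at 25° C. to 30° C. Fourteen days on, foliage received an even spray of the diluted emulsion. Herbicidal or crop effect was judged three weeks afterwards.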

barnyard grass [5] = assay: Test Example 3: herbicidal effect by foliage application, Wagner pot (Table 18, symbol H); format: in vivo, barnyard grass (Echinochloa crus-galli); conditions: amount of applied herbicide 320 g/ha
Outline: (§5)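 Plants were sown in alluvial soil held under 0.1–0.5 cm standing water and grown 14 days in a greenhouse at 25–30 °C. An emulsifiable formulation, water-diluted to the set dose, was then sprayed onto the foliage, and effects were scored three weeks later using previously defined criteria.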

barnyard grass [6] = assay: Test Example 5: herbicidal effect by foliage application, plastic box (Table 20, symbol H); format: in vivo, barnyard grass (Echinochloa crus-galli); conditions: foliage application, 320 g/ha, three weeks after application
Outline: as §4

redroot pigweed [7] = assay: Test Example 5: herbicidal effect by foliage application, plastic box (Table 20, symbol N); format: in vivo, redroot pigweed (Amaranthus retroflexus); conditions: foliage application, 320 g/ha, three weeks after application
Outline: as §4

velvetleaf [8] = assay: Test Example 5: herbicidal effect by foliage application, plastic box (Table 20, symbol M); format: in vivo, velvetleaf (Abutilon theophrasti); conditions: foliage application, 320 g/ha, three weeks after application
Outline: as §4

lambsquarters [9] = assay: Test Example 5: herbicidal effect by foliage application, plastic box (Table 20, symbol O); format: in vivo, lambsquarters (Chenopodium album); conditions: foliage application, 320 g/ha, three weeks after application
Outline: as §4

rice flat sedge = assay: Test Example 3: herbicidal effect by foliage application, Wagner pot (Table 18, symbol E); format: in vivo, rice flat sedge (Cyperus iria); conditions: amount of applied herbicide 320 g/ha
Outline: as §5

barnyard grass [10] = assay: Test Example 4: herbicidal effect by soil treatment (Table 19, symbol H); format: in vivo, barnyard grass (Echinochloa crus-galli); conditions: amount of applied herbicide 320 g/ha
Outline: as §2

Chinese sprangletop = assay: Test Example 3: herbicidal effect by foliage application, Wagner pot (Table 18, symbol D); format: in vivo, chinese sprangletop (Leptochloa chinensis); conditions: amount of applied herbicide 320 g/ha
Outline: as §5

Japanese bulrush [11] = assay: Test Example 2: herbicidal activity, application during weed generation under submerged conditions (Table 17, symbol B); format: in vivo, Japanese bulrush (Schoenoplectus juncoides); conditions: AAH 320 g/ha; application during weed generation, submerged conditions
Outline: as §3

southern crabgrass [12] = assay: Test Example 5: herbicidal effect by foliage application, plastic box (Table 20, symbol F); format: in vivo, southern crabgrass (Digitaria ciliaris); conditions: foliage application, 320 g/ha, three weeks after application
Outline: as §4

velvetleaf [13] = assay: Test Example 4: herbicidal effect by soil treatment (Table 19, symbol M); format: in vivo, velvetleaf (Abutilon theophrasti); conditions: amount of applied herbicide 320 g/ha
Outline: as §2

Japanese bulrush [14] = assay: Test Example 1: herbicidal activity, application before weed generation under submerged conditions (Table 16, symbol B); format: in vivo, Japanese bulrush (Schoenoplectus juncoides); conditions: amount of applied herbicide 320 g/ha
Outline: as §1

late watergrass [15] = assay: Test Example 1: herbicidal activity, application before weed generation under submerged conditions (Table 16, symbol A); format: in vivo, late watergrass (Echinochloa oryzicola); conditions: amount of applied herbicide 320 g/ha
Outline: as §1

southern crabgrass [16] = assay: Test Example 4: herbicidal effect by soil treatment (Table 19, symbol F); format: in vivo, southern crabgrass (Digitaria ciliaris); conditions: amount of applied herbicide 320 g/ha
Outline: as §2

lambsquarters [17] = assay: Test Example 4: herbicidal effect by soil treatment (Table 19, symbol O); format: in vivo, lambsquarters (Chenopodium album); conditions: amount of applied herbicide 320 g/ha
Outline: as §2

late watergrass [18] = assay: Test Example 2: herbicidal activity, application during weed generation under submerged conditions (Table 17, symbol A); format: in vivo, late watergrass (Echinochloa oryzicola); conditions: AAH 320 g/ha; application during weed generation, submerged conditions
Outline: as §3

redroot pigweed [19] = assay: Test Example 4: herbicidal effect by soil treatment (Table 19, symbol N); format: in vivo, redroot pigweed (Amaranthus retroflexus); conditions: amount of applied herbicide 320 g/ha
Outline: as §2

Row | SMILES | Herbicidal effect, C: oval-leafed pondweed (oval-leafed pondweed [1]) | herbicidal effect, G: green foxtail (green foxtail [2]) | herbicidal effect rating, C: oval-leafed pondweed (oval-leafed pondweed [3]) | G: green foxtail, herbicidal effect grade (green foxtail [4]) | herbicidal effect on H: barnyard grass (barnyard grass [5]) | N: redroot pigweed, herbicidal effect grade (redroot pigweed [7]) | M: velvetleaf, herbicidal effect grade (velvetleaf [8]) | O: lambsquarters, herbicidal effect grade (lambsquarters [9]) | herbicidal effect on E: rice flat sedge (rice flat sedge) | herbicidal effect, H: barnyard grass (barnyard grass [10]) | herbicidal effect on D: Chinese sprangletop (Chinese sprangletop) | herbicidal effect rating, B: Japanese bulrush (Japanese bulrush [11]) | F: southern crabgrass, herbicidal effect grade (southern crabgrass [12]) | herbicidal effect, M: velvetleaf (velvetleaf [13]) | Herbicidal effect, B: Japanese bulrush (Japanese bulrush [14]) | Herbicidal effect, A: late watergrass (late watergrass [15]) | herbicidal effect, F: southern crabgrass (southern crabgrass [16]) | herbicidal effect, O: lambsquarters (lambsquarters [17]) | herbicidal effect rating, A: late watergrass (late watergrass [18]) | herbicidal effect, N: redroot pigweed (redroot pigweed [19]) | also measured
1 | COCCOc1ccc(-c2sc3ccc(F)cc3c2-c2c(O)c(Cl)nn(C)c2=O)cc1 [2-440] | 3 (Herbicidal rate of 40% or more and less than 70%) | 5 (Herbicidal rate of 90% or more (almost completely withered)) | 3 (Herbicidal rate of 40% or more and less than 70%) | 5 (Herbicidal rate of 90% or more (almost completely withered)) | 5 (Herbicidal rate of 90% or more (almost completely withered)) | 5 (Herbicidal rate of 90% or more (almost completely withered)) | 5 (Herbicidal rate of 90% or more (almost completely withered)) | 5 (Herbicidal rate of 90% or more (almost completely withered)) | 0 (Herbicidal rate of 5% or less (almost no effect)) | 3 (Herbicidal rate of 40% or more and less than 70%) | 0 (Herbicidal rate of 5% or less (almost no effect)) | 3 (Herbicidal rate of 40% or more and less than 70%) | 5 (Herbicidal rate of 90% or more (almost completely withered)) | 4 (Herbicidal rate of 70% or more and less than 90%) | 4 (Herbicidal rate of 70% or more and less than 90%) | 3 (Herbicidal rate of 40% or more and less than 70%) | 3 (Herbicidal rate of 40% or more and less than 70%) | 5 (Herbicidal rate of 90% or more (almost completely withered)) | 3 (Herbicidal rate of 40% or more and less than 70%) | 5 (Herbicidal rate of 90% or more (almost completely withered)) | H: barnyard grass, herbicidal effect grade (barnyard grass [6]): 5 (Herbicidal rate of 90% or more (almost completely withered))
2 | COc1ccc2sc(-c3ccc(Cl)cc3)c(-c3c(O)c(C)nn(C)c3=O)c2c1 [2-450] | 0 (Herbicidal rate of 5% or less (almost no effect)) | 0 (Herbicidal rate of 5% or less (almost no effect)) | 0 (Herbicidal rate of 5% or less (almost no effect)) | 0 (Herbicidal rate of 5% or less (almost no effect)) | 3 (Herbicidal rate of 40% or more and less than 70%) | 5 (Herbicidal rate of 90% or more (almost completely withered)) | 5 (Herbicidal rate of 90% or more (almost completely withered)) | 5 (Herbicidal rate of 90% or more (almost completely withered)) | 5 (Herbicidal rate of 90% or more (almost completely withered)) | 0 (Herbicidal rate of 5% or less (almost no effect)) | 0 (Herbicidal rate of 5% or less (almost no effect)) | 2 (Herbicidal rate of 20% or more and less than 40%) | 0 (Herbicidal rate of 5% or less (almost no effect)) | 0 (Herbicidal rate of 5% or less (almost no effect)) | 3 (Herbicidal rate of 40% or more and less than 70%) | 2 (Herbicidal rate of 20% or more and less than 40%) | 0 (Herbicidal rate of 5% or less (almost no effect)) | 2 (Herbicidal rate of 20% or more and less than 40%) | 3 (Herbicidal rate of 40% or more and less than 70%) | 3 (Herbicidal rate of 40% or more and less than 70%) | 
3 | COCC[S+]([O-])c1ccc(-c2sc3ccc(F)cc3c2-c2c(O)c(C)nn(C)c2=O)cc1 (centres unmarked) [2-454] | 0 (Herbicidal rate of 5% or less (almost no effect)) | 5 (Herbicidal rate of 90% or more (almost completely withered)) | 0 (Herbicidal rate of 5% or less (almost no effect)) | 5 (Herbicidal rate of 90% or more (almost completely withered)) | 5 (Herbicidal rate of 90% or more (almost completely withered)) | 5 (Herbicidal rate of 90% or more (almost completely withered)) | 5 (Herbicidal rate of 90% or more (almost completely withered)) | 5 (Herbicidal rate of 90% or more (almost completely withered)) | 5 (Herbicidal rate of 90% or more (almost completely withered)) | 4 (Herbicidal rate of 70% or more and less than 90%) | 2 (Herbicidal rate of 20% or more and less than 40%) | 0 (Herbicidal rate of 5% or less (almost no effect)) | 5 (Herbicidal rate of 90% or more (almost completely withered)) | 3 (Herbicidal rate of 40% or more and less than 70%) | 0 (Herbicidal rate of 5% or less (almost no effect)) | 3 (Herbicidal rate of 40% or more and less than 70%) | 5 (Herbicidal rate of 90% or more (almost completely withered)) | 4 (Herbicidal rate of 70% or more and less than 90%) | 2 (Herbicidal rate of 20% or more and less than 40%) | 5 (Herbicidal rate of 90% or more (almost completely withered)) | H: barnyard grass, herbicidal effect grade (barnyard grass [6]): 5 (Herbicidal rate of 90% or more (almost completely withered))
